In the kinase profiling compilation of Christmann-Franck et al. (2016) one finds residual activity data, which are given here for three compounds.

The residual activity is the signal under treatment as a percentage of the control signal.

FYN (human), sequence (P06241 whole entry, looked up): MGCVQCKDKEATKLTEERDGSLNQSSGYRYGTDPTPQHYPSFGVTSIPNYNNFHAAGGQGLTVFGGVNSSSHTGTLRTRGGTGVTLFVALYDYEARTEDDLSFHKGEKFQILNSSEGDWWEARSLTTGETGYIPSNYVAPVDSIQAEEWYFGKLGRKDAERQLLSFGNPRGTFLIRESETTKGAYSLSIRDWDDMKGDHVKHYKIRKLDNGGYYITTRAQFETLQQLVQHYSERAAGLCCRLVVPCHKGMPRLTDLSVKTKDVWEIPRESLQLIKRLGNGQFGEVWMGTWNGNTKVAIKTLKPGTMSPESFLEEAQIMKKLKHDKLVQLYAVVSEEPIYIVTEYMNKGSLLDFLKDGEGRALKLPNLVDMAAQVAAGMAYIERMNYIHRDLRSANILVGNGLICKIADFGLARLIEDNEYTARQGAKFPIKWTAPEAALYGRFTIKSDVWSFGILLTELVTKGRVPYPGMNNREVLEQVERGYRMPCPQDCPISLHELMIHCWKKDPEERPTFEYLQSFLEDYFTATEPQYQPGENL
CSF1R (human), sequence (P07333 whole entry, looked up): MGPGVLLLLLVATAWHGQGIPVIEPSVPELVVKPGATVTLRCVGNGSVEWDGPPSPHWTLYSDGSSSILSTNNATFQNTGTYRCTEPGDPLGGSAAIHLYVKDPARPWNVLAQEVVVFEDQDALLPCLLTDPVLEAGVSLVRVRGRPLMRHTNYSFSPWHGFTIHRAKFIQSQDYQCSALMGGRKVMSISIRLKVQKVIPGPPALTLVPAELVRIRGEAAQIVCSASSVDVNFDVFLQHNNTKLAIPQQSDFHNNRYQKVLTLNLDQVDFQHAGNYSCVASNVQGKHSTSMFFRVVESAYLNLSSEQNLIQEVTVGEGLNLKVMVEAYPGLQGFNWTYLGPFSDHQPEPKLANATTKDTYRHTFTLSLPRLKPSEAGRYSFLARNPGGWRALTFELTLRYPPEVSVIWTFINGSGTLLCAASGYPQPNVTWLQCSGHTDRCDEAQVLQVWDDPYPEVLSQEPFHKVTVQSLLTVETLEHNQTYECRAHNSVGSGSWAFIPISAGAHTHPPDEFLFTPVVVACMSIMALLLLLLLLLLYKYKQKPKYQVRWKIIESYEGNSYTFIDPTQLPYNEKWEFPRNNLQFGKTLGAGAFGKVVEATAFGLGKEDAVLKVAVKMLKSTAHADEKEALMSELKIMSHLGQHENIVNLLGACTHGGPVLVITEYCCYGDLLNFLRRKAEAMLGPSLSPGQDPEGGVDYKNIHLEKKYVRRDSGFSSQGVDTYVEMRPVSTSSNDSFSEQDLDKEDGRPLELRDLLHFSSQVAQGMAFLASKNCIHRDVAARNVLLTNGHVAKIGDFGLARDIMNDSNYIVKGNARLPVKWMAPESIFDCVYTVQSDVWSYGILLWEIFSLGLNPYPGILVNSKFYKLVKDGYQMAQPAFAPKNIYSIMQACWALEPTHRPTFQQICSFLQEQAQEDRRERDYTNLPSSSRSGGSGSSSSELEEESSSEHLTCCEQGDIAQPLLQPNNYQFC

One assay addresses ROCK1 (human) (UniProt Q13464). Put plainly: radiometric filter-binding kinase assay, Kinase HotSpot. The conditions noted are these: compound 0.5 µM; ATP 10 µM.
Regarding `CCOC(=O)c1c(C)[nH]c(/C=C2\C(=O)Nc3ccccc32)c1C`, the residual activity came out at 99.1%.
Same read-out and setting: in the case of `Cc1[nH]c(/C=C2\C(=O)Nc3ccc(S(=O)(=O)N(C)c4cccc(Cl)c4)cc32)c(C)c1C(=O)N1CCN(C)CC1` it was 84%.
For the compound `Nc1ncnc2[nH]nc(Nc3ccc(F)cc3)c12`, the residual activity amounted to 100%.

The target of the next assay is GSG2 (human) (UniProt Q8TF76). The assay is described as above. Particulars: compound 0.5 µM; ATP 10 µM.
GSG2 (human), sequence (Q8TF76 whole entry, looked up): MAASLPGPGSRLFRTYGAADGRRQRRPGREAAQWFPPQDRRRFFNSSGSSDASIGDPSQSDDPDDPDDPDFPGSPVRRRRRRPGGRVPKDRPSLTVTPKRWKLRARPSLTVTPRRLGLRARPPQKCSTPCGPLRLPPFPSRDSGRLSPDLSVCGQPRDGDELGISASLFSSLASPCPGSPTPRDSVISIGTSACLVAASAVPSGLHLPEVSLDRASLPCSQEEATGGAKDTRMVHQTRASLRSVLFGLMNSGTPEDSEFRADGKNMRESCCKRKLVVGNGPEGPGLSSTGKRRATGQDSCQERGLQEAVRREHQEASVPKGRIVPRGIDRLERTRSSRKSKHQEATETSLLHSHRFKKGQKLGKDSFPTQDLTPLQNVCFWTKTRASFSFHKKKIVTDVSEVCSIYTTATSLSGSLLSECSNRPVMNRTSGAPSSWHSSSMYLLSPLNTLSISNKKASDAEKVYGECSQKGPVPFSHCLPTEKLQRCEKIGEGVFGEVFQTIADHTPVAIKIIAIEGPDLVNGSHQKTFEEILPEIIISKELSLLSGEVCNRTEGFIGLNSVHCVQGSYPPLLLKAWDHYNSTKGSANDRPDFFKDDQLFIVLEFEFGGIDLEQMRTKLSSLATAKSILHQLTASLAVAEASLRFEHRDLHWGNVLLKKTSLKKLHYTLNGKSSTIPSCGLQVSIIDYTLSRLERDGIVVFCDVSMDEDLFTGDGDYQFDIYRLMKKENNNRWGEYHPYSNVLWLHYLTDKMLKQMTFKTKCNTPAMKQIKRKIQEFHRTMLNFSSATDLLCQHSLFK
As to `CCOC(=O)c1c(C)[nH]c(/C=C2\C(=O)Nc3ccccc32)c1C`, the residual activity is 92.9%.
On the same count and under the same terms, next, `Cc1[nH]c(/C=C2\C(=O)Nc3ccc(S(=O)(=O)N(C)c4cccc(Cl)c4)cc32)c(C)c1C(=O)N1CCN(C)CC1`: 102%.
The same measure, in the same setting: in the case of `Nc1ncnc2[nH]nc(Nc3ccc(F)cc3)c12` it was 87.7%.

The next assay addresses MUSK (human) (UniProt O15146). The assay is described as above. Particulars: compound 0.5 µM; ATP 10 µM.
`CCOC(=O)c1c(C)[nH]c(/C=C2\C(=O)Nc3ccccc32)c1C`: the residual activity is 88.7%.
The same measure, in the same setting: next, `Cc1[nH]c(/C=C2\C(=O)Nc3ccc(S(=O)(=O)N(C)c4cccc(Cl)c4)cc32)c(C)c1C(=O)N1CCN(C)CC1`: 84.2%; `Nc1ncnc2[nH]nc(Nc3ccc(F)cc3)c12`: 93.9%.

A further assay addresses PDPK1 (human) (UniProt O15530). The assay is described as above. Particulars: compound 0.5 µM; ATP 10 µM.
For the compound `CCOC(=O)c1c(C)[nH]c(/C=C2\C(=O)Nc3ccccc32)c1C`, the residual activity was 92.5%.
For `Cc1[nH]c(/C=C2\C(=O)Nc3ccc(S(=O)(=O)N(C)c4cccc(Cl)c4)cc32)c(C)c1C(=O)N1CCN(C)CC1`, the residual activity amounted to 114%.
The same measure, in the same setting: in the case of `Nc1ncnc2[nH]nc(Nc3ccc(F)cc3)c12` it was 102%.

The next assay has as its target CSF1R (human) (UniProt P07333). The description is as above. The conditions noted are these: compound 0.5 µM; ATP 10 µM.
In the case of `CCOC(=O)c1c(C)[nH]c(/C=C2\C(=O)Nc3ccccc32)c1C`, the residual activity turned out to be 52.5%.
Same read-out and setting: in the case of `Cc1[nH]c(/C=C2\C(=O)Nc3ccc(S(=O)(=O)N(C)c4cccc(Cl)c4)cc32)c(C)c1C(=O)N1CCN(C)CC1` it was 64.9%; in that of `Nc1ncnc2[nH]nc(Nc3ccc(F)cc3)c12`, 101%.

In the next assay the target is PAK3 (human) (UniProt O75914). The assay is described as above. Particulars: compound 0.5 µM; ATP 10 µM.
Turning to `CCOC(=O)c1c(C)[nH]c(/C=C2\C(=O)Nc3ccccc32)c1C`, the residual activity is 99.1%.
As to `Cc1[nH]c(/C=C2\C(=O)Nc3ccc(S(=O)(=O)N(C)c4cccc(Cl)c4)cc32)c(C)c1C(=O)N1CCN(C)CC1`, the residual activity was found to be 93.5%.
As to `Nc1ncnc2[nH]nc(Nc3ccc(F)cc3)c12`, the residual activity amounted to 104%.

Another assay has as its target MAPK1 (human) (UniProt P28482). The assay is described as above. Particulars: compound 0.5 µM; ATP 10 µM.
`CCOC(=O)c1c(C)[nH]c(/C=C2\C(=O)Nc3ccccc32)c1C`: the residual activity was found to be 96.4%.
On the same count and under the same terms, next, `Cc1[nH]c(/C=C2\C(=O)Nc3ccc(S(=O)(=O)N(C)c4cccc(Cl)c4)cc32)c(C)c1C(=O)N1CCN(C)CC1`: 85.1%; `Nc1ncnc2[nH]nc(Nc3ccc(F)cc3)c12`: 80.8%.

Another assay has as its target STK4 (human) (UniProt Q13043). The description is as above. Particulars: compound 0.5 µM; ATP 10 µM.
Turning to `CCOC(=O)c1c(C)[nH]c(/C=C2\C(=O)Nc3ccccc32)c1C`, the residual activity came out at 83.4%.
The same measure, in the same setting: next, `Cc1[nH]c(/C=C2\C(=O)Nc3ccc(S(=O)(=O)N(C)c4cccc(Cl)c4)cc32)c(C)c1C(=O)N1CCN(C)CC1`: 49.1%.
Still for that read-out and setting: in the case of `Nc1ncnc2[nH]nc(Nc3ccc(F)cc3)c12` it was 90.4%.

Another assay has as its target LIMK1 (human) (UniProt P53667). The description is as above. The conditions noted are these: compound 0.5 µM; ATP 10 µM.
For the compound `CCOC(=O)c1c(C)[nH]c(/C=C2\C(=O)Nc3ccccc32)c1C`, the residual activity was determined as 81.3%.
On the same count and under the same terms, next, `Cc1[nH]c(/C=C2\C(=O)Nc3ccc(S(=O)(=O)N(C)c4cccc(Cl)c4)cc32)c(C)c1C(=O)N1CCN(C)CC1`: 87.9%.
On the same count and under the same terms, next, `Nc1ncnc2[nH]nc(Nc3ccc(F)cc3)c12`: 95.2%.

In a further assay the target is PKN1 (human) (UniProt Q16512). The assay is described as above. Particulars: compound 0.5 µM; ATP 10 µM.
PKN1 (human), sequence (Q16512 whole entry, looked up): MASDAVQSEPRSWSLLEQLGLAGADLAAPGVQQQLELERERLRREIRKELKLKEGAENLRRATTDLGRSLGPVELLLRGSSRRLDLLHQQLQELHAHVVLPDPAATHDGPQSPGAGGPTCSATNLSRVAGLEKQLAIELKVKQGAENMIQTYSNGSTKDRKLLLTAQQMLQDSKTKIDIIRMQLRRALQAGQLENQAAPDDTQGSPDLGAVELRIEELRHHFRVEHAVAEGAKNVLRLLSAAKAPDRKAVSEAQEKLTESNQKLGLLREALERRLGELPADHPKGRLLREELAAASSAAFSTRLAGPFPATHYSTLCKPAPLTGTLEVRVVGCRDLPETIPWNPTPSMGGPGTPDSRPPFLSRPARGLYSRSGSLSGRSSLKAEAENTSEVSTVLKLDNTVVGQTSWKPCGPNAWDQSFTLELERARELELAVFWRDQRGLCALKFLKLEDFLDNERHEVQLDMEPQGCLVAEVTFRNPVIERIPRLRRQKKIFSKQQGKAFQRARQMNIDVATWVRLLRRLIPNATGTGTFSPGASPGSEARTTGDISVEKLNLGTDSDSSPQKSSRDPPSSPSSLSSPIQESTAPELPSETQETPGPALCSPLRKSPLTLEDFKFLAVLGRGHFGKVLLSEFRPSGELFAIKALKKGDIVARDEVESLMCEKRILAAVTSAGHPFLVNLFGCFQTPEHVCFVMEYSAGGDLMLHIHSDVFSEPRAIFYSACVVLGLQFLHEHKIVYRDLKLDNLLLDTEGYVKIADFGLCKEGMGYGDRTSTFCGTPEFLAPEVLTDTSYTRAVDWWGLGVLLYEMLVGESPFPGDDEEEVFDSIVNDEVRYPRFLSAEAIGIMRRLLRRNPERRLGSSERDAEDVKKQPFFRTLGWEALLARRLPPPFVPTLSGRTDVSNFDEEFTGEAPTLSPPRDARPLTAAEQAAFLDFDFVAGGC
In the case of `CCOC(=O)c1c(C)[nH]c(/C=C2\C(=O)Nc3ccccc32)c1C`, the residual activity was 89.6%.
On the same count and under the same terms, next, `Cc1[nH]c(/C=C2\C(=O)Nc3ccc(S(=O)(=O)N(C)c4cccc(Cl)c4)cc32)c(C)c1C(=O)N1CCN(C)CC1`: 86.4%.
On the same count and under the same terms, next, `Nc1ncnc2[nH]nc(Nc3ccc(F)cc3)c12`: 102%.

The target of a further assay is CAMKK1 (human) (UniProt Q8N5S9). The assay is described as above. Particulars: compound 0.5 µM; ATP 10 µM.
CAMKK1 (human), sequence (Q8N5S9 whole entry, looked up): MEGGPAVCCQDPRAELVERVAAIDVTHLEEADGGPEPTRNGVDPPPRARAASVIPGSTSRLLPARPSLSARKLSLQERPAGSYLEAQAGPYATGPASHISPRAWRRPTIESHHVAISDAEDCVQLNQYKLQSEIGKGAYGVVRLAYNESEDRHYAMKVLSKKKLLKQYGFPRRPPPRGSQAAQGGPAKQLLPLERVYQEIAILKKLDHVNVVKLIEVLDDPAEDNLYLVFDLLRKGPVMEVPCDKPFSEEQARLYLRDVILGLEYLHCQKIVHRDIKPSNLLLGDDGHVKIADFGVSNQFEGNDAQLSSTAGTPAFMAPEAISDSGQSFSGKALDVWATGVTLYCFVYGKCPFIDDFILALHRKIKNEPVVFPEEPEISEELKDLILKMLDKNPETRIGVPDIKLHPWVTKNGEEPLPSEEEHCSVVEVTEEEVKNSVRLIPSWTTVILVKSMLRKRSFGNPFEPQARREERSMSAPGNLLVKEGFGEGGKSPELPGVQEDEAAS
With `CCOC(=O)c1c(C)[nH]c(/C=C2\C(=O)Nc3ccccc32)c1C`, the residual activity came to 95.3%.
The same measure, in the same setting: next, `Cc1[nH]c(/C=C2\C(=O)Nc3ccc(S(=O)(=O)N(C)c4cccc(Cl)c4)cc32)c(C)c1C(=O)N1CCN(C)CC1`: 93.3%; `Nc1ncnc2[nH]nc(Nc3ccc(F)cc3)c12`: 101%.

The target of the next assay is PDGFRA (human) (UniProt P16234). Described as above. The conditions noted are these: compound 0.5 µM; ATP 10 µM.
For the compound `CCOC(=O)c1c(C)[nH]c(/C=C2\C(=O)Nc3ccccc32)c1C`, the residual activity was 82.8%.
Same read-out and setting: in the case of `Cc1[nH]c(/C=C2\C(=O)Nc3ccc(S(=O)(=O)N(C)c4cccc(Cl)c4)cc32)c(C)c1C(=O)N1CCN(C)CC1` it was 72.8%.
The same measure, in the same setting: next, `Nc1ncnc2[nH]nc(Nc3ccc(F)cc3)c12`: 101%.

For the next assay, the target named is STK3 (human) (UniProt Q13188). The description is as above. The conditions noted are these: compound 0.5 µM; ATP 10 µM.
On to `CCOC(=O)c1c(C)[nH]c(/C=C2\C(=O)Nc3ccccc32)c1C`, for which the residual activity stood at 73.7%.
The same measure, in the same setting: next, `Cc1[nH]c(/C=C2\C(=O)Nc3ccc(S(=O)(=O)N(C)c4cccc(Cl)c4)cc32)c(C)c1C(=O)N1CCN(C)CC1`: 78.6%.
On the same count and under the same terms, in the case of `Nc1ncnc2[nH]nc(Nc3ccc(F)cc3)c12` it was 90.8%.

The next assay deals with MAPKAPK5 (human) (UniProt Q8IW41). Described as above. The conditions noted are these: compound 0.5 µM; ATP 10 µM.
Turning to `CCOC(=O)c1c(C)[nH]c(/C=C2\C(=O)Nc3ccccc32)c1C`, the residual activity turned out to be 93.9%.
`Cc1[nH]c(/C=C2\C(=O)Nc3ccc(S(=O)(=O)N(C)c4cccc(Cl)c4)cc32)c(C)c1C(=O)N1CCN(C)CC1`: the residual activity stood at 77.6%.
Same read-out and setting: in the case of `Nc1ncnc2[nH]nc(Nc3ccc(F)cc3)c12` it was 80.9%.

The target in the next assay is CAMKK2 (human) (UniProt Q96RR4). The description is as above. The conditions noted are these: compound 0.5 µM; ATP 10 µM.
CAMKK2 (human), sequence (Q96RR4 whole entry, looked up): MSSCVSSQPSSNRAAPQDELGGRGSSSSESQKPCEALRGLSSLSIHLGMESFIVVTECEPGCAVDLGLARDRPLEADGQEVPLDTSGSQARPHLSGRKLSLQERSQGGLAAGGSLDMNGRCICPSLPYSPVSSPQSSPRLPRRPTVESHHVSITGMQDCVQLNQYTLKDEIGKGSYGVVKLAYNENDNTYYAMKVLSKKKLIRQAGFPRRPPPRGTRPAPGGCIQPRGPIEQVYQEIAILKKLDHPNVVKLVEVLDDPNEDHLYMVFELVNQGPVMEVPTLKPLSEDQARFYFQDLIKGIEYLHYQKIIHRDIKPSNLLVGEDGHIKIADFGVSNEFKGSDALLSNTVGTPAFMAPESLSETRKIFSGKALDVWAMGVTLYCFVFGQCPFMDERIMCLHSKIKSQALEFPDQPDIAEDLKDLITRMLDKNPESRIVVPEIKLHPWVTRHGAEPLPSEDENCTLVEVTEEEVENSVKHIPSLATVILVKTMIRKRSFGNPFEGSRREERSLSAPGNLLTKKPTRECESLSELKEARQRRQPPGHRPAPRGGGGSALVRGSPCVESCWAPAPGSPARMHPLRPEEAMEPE
As for `CCOC(=O)c1c(C)[nH]c(/C=C2\C(=O)Nc3ccccc32)c1C`, the residual activity amounted to 90.8%.
Same read-out and setting: in the case of `Cc1[nH]c(/C=C2\C(=O)Nc3ccc(S(=O)(=O)N(C)c4cccc(Cl)c4)cc32)c(C)c1C(=O)N1CCN(C)CC1` it was 75.2%; in that of `Nc1ncnc2[nH]nc(Nc3ccc(F)cc3)c12`, 83.6%.

A further assay has as its target FYN (human) (UniProt P06241). Described as above. Particulars: compound 0.5 µM; ATP 10 µM.
In the case of `CCOC(=O)c1c(C)[nH]c(/C=C2\C(=O)Nc3ccccc32)c1C`, the residual activity stood at 97.3%.
For the compound `Cc1[nH]c(/C=C2\C(=O)Nc3ccc(S(=O)(=O)N(C)c4cccc(Cl)c4)cc32)c(C)c1C(=O)N1CCN(C)CC1`, the residual activity came out at 67.1%.
Same read-out and setting: in the case of `Nc1ncnc2[nH]nc(Nc3ccc(F)cc3)c12` it was 93%.

The target of a further assay is MST1R (human) (UniProt Q04912). Described as above. Particulars: compound 0.5 µM; ATP 10 µM.
For the compound `CCOC(=O)c1c(C)[nH]c(/C=C2\C(=O)Nc3ccccc32)c1C`, the residual activity is 87.5%.
Same read-out and setting: next, `Cc1[nH]c(/C=C2\C(=O)Nc3ccc(S(=O)(=O)N(C)c4cccc(Cl)c4)cc32)c(C)c1C(=O)N1CCN(C)CC1`: 103%; `Nc1ncnc2[nH]nc(Nc3ccc(F)cc3)c12`: 93.7%.

In the next assay the target is NEK7 (human) (UniProt Q8TDX7). The description is as above. Particulars: compound 0.5 µM; ATP 10 µM.
For `CCOC(=O)c1c(C)[nH]c(/C=C2\C(=O)Nc3ccccc32)c1C`, the residual activity is 102%.
The same measure, in the same setting: in the case of `Cc1[nH]c(/C=C2\C(=O)Nc3ccc(S(=O)(=O)N(C)c4cccc(Cl)c4)cc32)c(C)c1C(=O)N1CCN(C)CC1` it was 90.3%; in that of `Nc1ncnc2[nH]nc(Nc3ccc(F)cc3)c12`, 97%.

For another assay, the target named is MAP3K2 (human) (UniProt Q9Y2U5). The description is as above. Particulars: compound 0.5 µM; ATP 10 µM.
MAP3K2 (human), sequence (Q9Y2U5 whole entry, looked up): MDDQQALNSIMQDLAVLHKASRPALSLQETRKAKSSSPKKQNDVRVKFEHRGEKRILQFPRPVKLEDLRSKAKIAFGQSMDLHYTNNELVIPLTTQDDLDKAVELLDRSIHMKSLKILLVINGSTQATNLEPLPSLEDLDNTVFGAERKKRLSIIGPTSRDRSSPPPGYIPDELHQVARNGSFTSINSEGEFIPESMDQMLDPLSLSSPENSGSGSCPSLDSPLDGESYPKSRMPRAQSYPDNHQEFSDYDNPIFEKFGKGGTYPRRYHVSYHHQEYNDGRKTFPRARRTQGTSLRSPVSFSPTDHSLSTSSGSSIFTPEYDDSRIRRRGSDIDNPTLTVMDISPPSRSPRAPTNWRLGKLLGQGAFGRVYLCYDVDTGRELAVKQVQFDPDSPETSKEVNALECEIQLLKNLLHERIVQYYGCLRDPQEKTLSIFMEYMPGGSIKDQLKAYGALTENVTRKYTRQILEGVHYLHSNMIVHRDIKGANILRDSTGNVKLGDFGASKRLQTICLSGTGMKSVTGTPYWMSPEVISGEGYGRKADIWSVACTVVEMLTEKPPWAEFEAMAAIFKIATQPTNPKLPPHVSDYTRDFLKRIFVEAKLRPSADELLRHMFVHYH
As to `CCOC(=O)c1c(C)[nH]c(/C=C2\C(=O)Nc3ccccc32)c1C`, the residual activity turned out to be 108%.
Same read-out and setting: next, `Cc1[nH]c(/C=C2\C(=O)Nc3ccc(S(=O)(=O)N(C)c4cccc(Cl)c4)cc32)c(C)c1C(=O)N1CCN(C)CC1`: 68.5%; `Nc1ncnc2[nH]nc(Nc3ccc(F)cc3)c12`: 95.6%.

The target in another assay is AKT2 (human) (UniProt P31751). The assay is described as above. Particulars: compound 0.5 µM; ATP 10 µM.
For the compound `CCOC(=O)c1c(C)[nH]c(/C=C2\C(=O)Nc3ccccc32)c1C`, the residual activity came out at 87.6%.
`Cc1[nH]c(/C=C2\C(=O)Nc3ccc(S(=O)(=O)N(C)c4cccc(Cl)c4)cc32)c(C)c1C(=O)N1CCN(C)CC1`: the residual activity was found to be 102%.
Same read-out and setting: next, `Nc1ncnc2[nH]nc(Nc3ccc(F)cc3)c12`: 108%.

The target in a further assay is EPHA7 (human) (UniProt Q15375). Described as above. Particulars: compound 0.5 µM; ATP 10 µM.
For `CCOC(=O)c1c(C)[nH]c(/C=C2\C(=O)Nc3ccccc32)c1C`, the residual activity worked out at 85.3%.
For `Cc1[nH]c(/C=C2\C(=O)Nc3ccc(S(=O)(=O)N(C)c4cccc(Cl)c4)cc32)c(C)c1C(=O)N1CCN(C)CC1`, the residual activity came out at 85.8%.
On the same count and under the same terms, next, `Nc1ncnc2[nH]nc(Nc3ccc(F)cc3)c12`: 101%.
